Test results reported in patent US7008636B2, “2,3,5-substituted biphenyls useful in the treatment of insulin resistance and hyperglycemia” (Wyeth, priority 1998, dated 2006).
Where a name gives a salt, the structure may show the parent alone.

Target: T1, recombinant, human protein tyrosine phosphatase (PTP) 1B (hPTP1B) (Homo sapiens, UniProt P18031)
T1 construct: made in house
T1 sequence (P18031 1-435): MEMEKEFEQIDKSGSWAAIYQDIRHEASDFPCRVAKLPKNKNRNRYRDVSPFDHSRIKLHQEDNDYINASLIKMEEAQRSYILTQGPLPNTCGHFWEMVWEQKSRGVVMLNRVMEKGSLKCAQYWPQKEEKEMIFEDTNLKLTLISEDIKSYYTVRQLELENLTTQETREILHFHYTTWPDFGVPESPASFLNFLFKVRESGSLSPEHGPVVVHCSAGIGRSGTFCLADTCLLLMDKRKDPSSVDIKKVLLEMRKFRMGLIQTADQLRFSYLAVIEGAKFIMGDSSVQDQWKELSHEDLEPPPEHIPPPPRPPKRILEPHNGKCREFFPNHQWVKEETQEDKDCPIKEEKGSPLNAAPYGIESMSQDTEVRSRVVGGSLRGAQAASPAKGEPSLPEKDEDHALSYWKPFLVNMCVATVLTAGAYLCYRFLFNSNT
Experiment: Inhibition of tri-phosphorylated insulin receptor dodecaphosphopeptide dephosphorylation by hPTP1B
Format: biochemical
Conditions: 50 μM IR triphosphopeptide substrate, 5 min preincubation and 5 min reaction at 37° C., malachite green-ammonium molybdate phosphate detection

| IC50 [nM] | Compound |
| --- | --- |
| 136 | CCCCCCCOc1ccc(CNC(=O)c2cc(-c3cccc(Cl)c3)c(OCC(=O)O)c(-c3cccc(Cl)c3)c2)cc1 [Example 162, [3,3″-Dichloro-5′-(4-heptyloxy-benzylcarbamoyl)-[1,1′;3′,1″]terphenyl-2′-yloxy]acetic acid] |
| 191 | O=C(O)CCCCOc1c(-c2cccc(Cl)c2)cc(C(=O)NCCCCCCCCn2ccc3ccccc32)cc1-c1cccc(Cl)c1 [Example 164, 5-[3,3″-Dichloro-5′-(8-indol-1-yl-octylcarbamoyl)-[1,1′;3′,1″]terphenyl-2′-yloxy]-pentanoic acid] |
| 77 | O=C(O)c1ccc(OCCOc2c(-c3cccc(Cl)c3)cc(C(=O)NCCCCCCCCn3ccc4ccccc43)cc2-c2cccc(Cl)c2)cc1 [Example 165, 4-{2-[3,3″-Dichloro-5′-(8-indol-1-yl-octylcarbamoyl)-[1,1′:3′,1″]terphenyl-2′-yloxy]-ethoxy}benzoic acid] |
| 231 | O=C(O)COc1c(-c2cccc(Cl)c2)cc(C(=O)NCCCCCCO)cc1-c1cccc(Cl)c1 [Example 167, [3,3″-Dichloro-5′-(6-hydroxy-hexylcarbamoyl)-[1,1′:3′,1″]terphenyl-2′-yloxy]acetic acid] |
| 77 | O=C(O)COCCOc1c(-c2cccc(Cl)c2)cc(C(=O)NCCCCCCCCn2ccc3ccccc32)cc1-c1cccc(Cl)c1 [Example 168, {2-[3,3″-Dichloro-5′-(8-indol-1-yl-octylcarbamoyl)-[1,1′:3′,1″]terphenyl-2′-yloxy]-ethoxy}acetic acid] |
| 18 | CCCCCCCCCCCCCc1cc(-c2ccccc2)c(OCC(=O)O)c(-c2ccccc2)c1 [Example 171, (5′-Tridecyl-[1,1′;3′,1″]terphenyl-2′-yloxy)acetic acid] |
| 154 | CCCCCCCCCCOc1cc(-c2ccccc2)c(OCC(=O)O)c(-c2ccccc2)c1 [Example 172, (5′-Decyloxy-[1,1′;3′,1″]terphenyl-2′-yloxy)acetic acid] |
| 121 | CCCCCCCCCCCCNC(=O)c1cc(Br)c(OCC(=O)O)c(-c2cccc(C(F)(F)F)c2)c1 [Example 176, (3-Bromo-5-dodecylcarbamoyl-3′-trifluoromethyl-biphenyl-2-yloxy)-acetic acid] |
| 104 | O=C(O)COc1c(-c2cccc(C(F)(F)F)c2)cc(C(=O)NCCCCCCCCc2ccccc2)cc1-c1cccc(C(F)(F)F)c1 [Example 177] |
| 25 | CCCCCCCCCCCCNC(=O)c1cc(Br)c(OS(=O)(=O)c2ccc(C(=O)O)c(O)c2)c(-c2cccc(C(F)(F)F)c2)c1 [Example 179, 4-(3-Bromo-5-dodecylcarbamoyl-3′-trifluoromethyl-biphenyl-2-yloxysulfonyl)-2-hydroxy-benzoic acid] |
| 107 | O=C(O)CCCCOc1c(-c2cccc(C(F)(F)F)c2)cc(C(=O)NCCCCCCCCc2ccccc2)cc1-c1cccc(C(F)(F)F)c1 [Example 192] |
| 640 | O=C(NCCCCCCCCc1ccccc1)c1cc(Br)c(O)c(-c2cccc(C(F)(F)F)c2)c1 [Example 194, 5-Bromo-6-hydroxy-3′-trifluoromethyl-biphenyl-3-carboxylic acid (8-phenyl-octyl)-amide] |
| 73 | O=C(NCCCCCCCCc1ccccc1)c1cc(Br)c(OS(=O)(=O)c2ccc(C(=O)O)c(O)c2)c(-c2cccc(C(F)(F)F)c2)c1 [Example 195, 4-[3-Bromo-5-(8-phenyl-octylcarbamoyl)-3′-trifluoromethyl-biphenyl-2-yloxysulfonyl]-2-hydroxy-benzoic acid] |
| 150 | O=C(O)CCCCCCOc1c(-c2cccc(C(F)(F)F)c2)cc(C(=O)NCCCCCCCCc2ccccc2)cc1-c1cccc(C(F)(F)F)c1 [Example 196, 7-[5′-(8-Phenyl-octylcarbamoyl)-3,3″-bistrifluoromethyl-[1,1′;3′,1″]terphenyl-2′-yloxy]-heptanoic acid] |
| 99 | O=C(NCCCCCCCCc1ccccc1)c1cc(-c2cccc(C(F)(F)F)c2)c(OCCNc2c(O)c(=O)c2=O)c(-c2cccc(C(F)(F)F)c2)c1 [Example 197] |
| 102 | COc1cc(COc2c(-c3cccc(C(F)(F)F)c3)cc(C(=O)NCCCCCCCCc3ccccc3)cc2-c2cccc(C(F)(F)F)c2)ccc1C(=O)O [Example 199, 2-Methoxy-4-[5′-(8-phenyl-octylcarbamoyl)-3,3″-bis-trifluoromethyl-[1,1′:3′1″]terphenyl-2′yloxymethyl]-benzoic acid] |
| 50 | O=C(NCCCCCCCCc1ccccc1)c1cc(-c2cccc(C(F)(F)F)c2)c(OS(=O)(=O)c2ccc(C(=O)O)c(O)c2)c(-c2cccc(C(F)(F)F)c2)c1 [Example 203, 2-Hydroxy-4-[5′-(8-phenyl-octylcarbamoyl)-3,3″-bis-trifluoromethyl-[1,1′:3′1″]terphenyl-2′-yloxysulfonyl]-benzoic acid] |
| 73 | COc1cc(COc2c(Br)cc(C(=O)NCCCCCCCCc3ccccc3)cc2-c2cccc(C(F)(F)F)c2)ccc1C(=O)O [Example 204, 4-[3-Bromo-5-(8-phenyl-octylcarbamoyl)-3′-trifluoromethyl-biphenyl-2-yloxymethyl]-2-methoxy-benzoic acid] |
| 286 | O=C(NCCCCCCCCc1ccccc1)c1cc(-c2cccc(C(F)(F)F)c2)c(OCc2nnn[nH]2)c(-c2cccc(C(F)(F)F)c2)c1 [Example 206, 2′-(1H-Tetrazol-5-ylmethoxy)-3,3″-bis-trifluoromethyl-[1,1′:3′1″]terphenyl-5′-carboxylic acid (8-phenyl-octyl)-amide] |
| 83 | O=C(NCCCCCCCCc1ccccc1)c1cc(Br)c(OCc2ccc(C(=O)O)c(O)c2)c(-c2cccc(C(F)(F)F)c2)c1 [Example 208, 4-[3-Bromo-5-(8-phenyl-octylcarbamoyl)-3′-trifluoromethyl-biphenyl-2-yloxymethyl]-2-hydroxy-benzoic acid] |
| 530 | O=C(NCCCCCCCCc1ccccc1)c1ccc(OS(=O)(=O)c2ccc(C(=O)O)c(O)c2)c(Br)c1 [Example 210, 4-[2-Bromo-4-(8-phenyl-octylcarbamoyl)-phenoxysulfonyl]-2-hydroxy-benzoic acid] |
| 60 | O=C(NCCCCCCCCc1ccccc1)c1cc(-c2cccc(C(F)(F)F)c2)c(OCCOc2ccc(C(=O)O)c(O)c2)c(-c2cccc(C(F)(F)F)c2)c1 [Example 211, 2-Hydroxy-4-{2-[5′-(8-phenyl-octylcarbamoyl)-3,3″-bis-trifluoromethyl-[1,1′:3′,1″]terphenyl-2′-yloxy]-ethoxy}-benzoic acid] |
| 272 | CN(CCCCCCCCc1ccccc1)C(=O)c1cc(Br)c(OCC(=O)O)c(-c2cccc(C(F)(F)F)c2)c1 [Example 212, {3-Bromo-5-[methyl-(8-phenyl-octyl)-carbamoyl]-3′-trifluoromethyl-biphenyl-2-yloxy]-acetic acid] |
| 198 | CN(CCCCCCCCc1ccccc1)C(=O)c1cc(-c2ccc(F)c(Cl)c2)c(OCC(=O)O)c(-c2ccc(F)c(Cl)c2)c1 [Example 213, {3,3″-Dichloro-4,4″difluoro-5′-[methyl-(8-phenyl-octyl)-carbamoyl]-[1,1′;3′1″]terphenyl-2′yloxy}-acetic acid] |
| 8700 | Ammonium molybdate tetrahydrate [reference compound] |
| 124 | [[4,4′-Dimethoxy-5′-[4-[[(7-phenylheptyl)amino]carbonyl]phenyl][1,1′:3′,1-terphenyl]-2′-yl]oxy]acetic acid [Example 131] |
| 84 | [[5′-[4-[[(7-Phenylheptyl)amino]carbonyl]phenyl]-3,3′-bis(trifluoromethyl)[1,1′:3′,1′-terphenyl]-2′-yl]oxy]acetic acid [Example 132] |

Test system: not given
Experiment: not given
Conditions: not given

| melting point [°C] | Compound |
| --- | --- |
| 140.2 to 141 | CCCCCCCCCCCCNC(=O)c1cc(-c2ccc(F)c(Cl)c2)c(OCC(=O)O)c(-c2ccc(F)c(Cl)c2)c1 (as salt: sodium) [Example 24, (3,3″-Dichloro-5′-dodecylcarbamoyl-4,4″-difluoro[1,1′;3′,1″]terphenyl(-2′-yloxy)-acetic acid sodium salt] |
| 84 to 85 | CCOP(=O)(COc1c(-c2cccc(C(F)(F)F)c2)cc(C(=O)NCCCCCCCc2ccccc2)cc1-c1cccc(C(F)(F)F)c1)OCC (hydrate or solvate) |
| 160 to 165 | O=C(NCCCCCCCc1ccccc1)c1cc(-c2cccc(C(F)(F)F)c2)c(OCP(=O)(O)O)c(-c2cccc(C(F)(F)F)c2)c1 (hydrate or solvate) [Example 128, [5′-(7-Phenyl-heptylcarbamoyl)-3,3″-bis-trifluoromethyl-[1,1′:3′,1″]terphenyl-2′-yloxymethyl]-phosphonic acid] |
| 140 to 142 | COc1ccc(-c2cc(-c3ccc(C(=O)NCCCCCCCc4ccccc4)cc3)cc(-c3ccc(OC)cc3)c2OCc2ccc(C(=O)O)cc2)cc1 (hydrate or solvate) [Example 133] |
| 89 to 91 | O=C(O)c1ccc(COc2c(-c3cccc(C(F)(F)F)c3)cc(C(=O)NCCCCCCCc3ccccc3)cc2-c2cccc(C(F)(F)F)c2)cc1 (hydrate or solvate) [Example 134, 4-[5′-(7-Phenyl-heptylcarbamoyl)-3,3″-bis-trifluoromethyl-[1,1′:3′,1″]terphenyl-2′-yloxymethyl]-benzoic acid] |
| 143 to 145.4 | O=C(O)COc1c(-c2cccc(C(F)(F)F)c2)cc(C(=O)NCCCCCCCCc2ccccc2)cc1-c1cccc(C(F)(F)F)c1 [Example 7] |
